Structures can show the parent of a compound that is named as a salt.
Test system: HMOX1
Assay: HMOX1 Protein Assay (immunostaining of HO-1 in NHLF cells, GE InCell 1000)
Assay type: cell-based
Conditions: Homo sapiens, fold change above DMSO treated cells, 3 μM compound (asterisk), 16 h
Procedure, shortened: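 Fold induction of HO-1 over vehicle, normally at 5 μM compound (asterisk marks 3 μM), in 0.8% DMSO medium. Normal human lung fibroblasts were treated 16 h, then paraformaldehyde-fixed, anti-HO-1/Alexa 488 stained with Hoechst, and read by high-content imaging.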

| SMILES | fold induction at 3 µM |
| --- | --- |
| CC(C)c1ccc2nc(Nc3nc4cc(C(=O)NCC(=O)N(C)C)ccc4n3C)sc2c1 [Example 365, 2-(6-Isopropyl-benzothiazol-2-ylamino)-1-methyl-1H-benzoimidazole-5-carboxylic acid dimethylcarbamoylmethyl-amide] | 20.1 |
| CCN(CC)CCCNC(=O)c1ccc2c(c1)nc(Nc1nc3ccc(OC(F)(F)F)cc3s1)n2C [Example 351, 1-Methyl-2-(6-trifluoromethoxy-benzothiazol-2-ylamino)-1H-benzoimidazole-5-carboxylic acid (3-diethylamino-propyl)-amide] | 25 |
| CN1CCN(CCNC(=O)c2ccc3c(c2)nc(Nc2nc4ccc(OC(F)(F)F)cc4s2)n3C)CC1 [Example 337, 1-Methyl-2-(6-trifluoromethoxy-benzothiazol-2-ylamino)-1H-benzoimidazole-5-carboxylic acid [2-(4-methyl-piperazin-1-yl)-ethyl]-amide] | 12.7 |
| C[C@@H](O)CN1CC[C@@H](NC(=O)c2ccc3c(c2)nc(Nc2nc4ccc(C(F)(F)F)cc4s2)n3C)C1 [Example 297, 1-Methyl-2-(6-trifluoromethyl-benzothiazol-2-ylamino)-1H-benzoimidazole-5-carboxylic acid [(R)-1-((R)-2-hydroxy-propyl)-pyrrolidin-3-yl]-amide] | 24.4 |
| CO[C@H]1CCCN(C(=O)CNC(=O)c2ccc3c(c2)nc(Nc2nc4ccc(Cl)cc4s2)n3C)C1 [Example 444, 2-(6-Chloro-benzothiazol-2-ylamino)-1-methyl-1H-benzoimidazole-5-carboxylic acid [2-((S)-3-methoxy-piperidin-1-yl)-2-oxo-ethyl]-amide] | 32 |
| CN(C)CCCNC(=O)c1ccc2c(c1)nc(Nc1nc3ccc(OC(F)(F)F)cc3s1)n2C [Example 348, 1-Methyl-2-(6-trifluoromethoxy-benzothiazol-2-ylamino)-1H-benzoimidazole-5-carboxylic acid (3-dimethylamino-propyl)-amide] | 22 |
| CN1CCN(CCCNC(=O)c2ccc3c(c2)nc(Nc2nc4ccc(C(F)(F)F)cc4s2)n3C)CC1 [Example 357, 1-Methyl-2-(6-trifluoromethyl-benzothiazol-2-ylamino)-1H-benzoimidazole-5-carboxylic acid [3-(4-methyl-piperazin-1-yl)-propyl]-amide] | 22 |
| CN(C)CCCNC(=O)c1ccc2c(c1)nc(Nc1nc3ccc(Cl)cc3s1)n2C [Example 349, 2-(6-Chloro-benzothiazol-2-ylamino)-1-methyl-1H-benzoimidazole-5-carboxylic acid (3-dimethylamino-propyl)-amide] | 29 |
| CO[C@H]1CCCN(C(=O)CNC(=O)c2ccc3c(c2)nc(Nc2nc4ccc(C(F)(F)F)cc4s2)n3C)C1 [Example 445, 1-Methyl-2-(6-trifluoromethyl-benzothiazol-2-ylamino)-1H-benzoimidazole-5-carboxylic acid [2-((S)-3-methoxy-piperidin-1-yl)-2-oxo-ethyl]-amide] | 36.4 |
| C[C@H](NC(=O)c1ccc2c(c1)nc(Nc1nc3ccc(Cl)cc3s1)n2C)C(=O)N1CCOCC1 [Example 465, 2-(6-Chloro-benzothiazol-2-ylamino)-1-methyl-1H-benzoimidazole-5-carboxylic acid ((S)-1-methyl-2-morpholin-4-yl-2-oxo-ethyl)-amide] | 20.4 |
| CO[C@H]1CCN(C(=O)CNC(=O)c2ccc3c(c2)nc(Nc2nc4ccc(Cl)cc4s2)n3C)C1 [Example 409, 2-(6-Chloro-benzothiazol-2-ylamino)-1-methyl-1H-benzoimidazole-5-carboxylic acid [2-((S)-3-methoxy-pyrrolidin-1-yl)-2-oxo-ethyl]-amide] | 29 |

Same assay, conditions: Homo sapiens, fold change above DMSO treated cells, 5 μM compound, 16 h

| SMILES | fold induction at 5 µM |
| --- | --- |
| CN(C)[C@H]1CCN(C(=O)CNC(=O)c2ccc3c(c2)nc(Nc2nc4ccc(Cl)cc4s2)n3C)C1 [Example 418, 2-(6-Chloro-benzothiazol-2-ylamino)-1-methyl-1H-benzoimidazole-5-carboxylic acid [2-((S)-3-dimethylamino-pyrrolidin-1-yl)-2-oxo-ethyl]-amide] | 63.3 |
| Cn1c(Nc2nc3ccc(Cl)cc3s2)nc2cc(C(=O)NCC(=O)NC3CCOCC3)ccc21 [Example 385, 2-(6-Chloro-benzothiazol-2-ylamino)-1-methyl-1H-benzoimidazole-5-carboxylic acid [(tetrahydro-pyran-4-ylcarbamoyl)-methyl]-amide] | 24.5 |
| Cn1c(Nc2nc3ccc(OC(F)(F)F)cc3s2)nc2cc(C(=O)NCCc3ccc(O)cc3)ccc21 [Example 251, 1-Methyl-2-(6-trifluoromethoxy-benzothiazol-2-ylamino)-1H-benzoimidazole-5-carboxylic acid [2-(4-hydroxy-phenyl)-ethyl]-amide] | 29.6 |
| COC(=O)c1ccc2c(c1)nc(Nc1nc3ccc(C(F)(F)F)cc3s1)n2C [Example 23, 1-Methyl-2-(6-trifluoromethyl-benzothiazol-2-ylamino)-1H-benzoimidazole-5-carboxylic acid methyl ester] | 4.11 |
| COC(=O)c1ccc2c(c1)nc(Nc1nc3ccc(SC(F)(F)F)cc3s1)n2C [Example 132, 1-Methyl-2-(6-trifluoromethylsulfanyl-benzothiazol-2-ylamino)-1H-benzoimidazole-5-carboxylic acid methyl ester] | 5.8 |
| Cn1c(Nc2nc3ccc(OC(F)(F)F)cc3s2)nc2cc(C(=O)NCCc3cccc(O)c3)ccc21 [Example 252, 1-Methyl-2-(6-trifluoromethoxy-benzothiazol-2-ylamino)-1H-benzoimidazole-5-carboxylic acid [2-(3-hydroxy-phenyl)-ethyl]-amide] | 13.1 |
| CN(C)C(=O)C1(NC(=O)c2ccc3c(c2)nc(Nc2nc4ccc(OC(F)(F)F)cc4s2)n3C)CC1 [Example 150, 1-Methyl-2-(6-trifluoromethoxy-benzothiazol-2-ylamino)-1H-benzimidazole-5-carboxylic acid (1-dimethylcarbamoyl-cyclopropyl)-amide] | 41.6 |
| Cn1c(Nc2nc3cc(F)c(F)cc3s2)nc2cc(C(=O)NCCO)ccc21 [Example 36, 2-(5,6-Difluoro-benzothiazol-2-ylamino)-1-methyl-1H-benzoimidazole-5-carboxylic acid (2-hydroxy-ethyl)-amide] | 13.8 |
| C[C@H](O)C(=O)NCCNC(=O)c1ccc2c(c1)nc(Nc1nc3ccc(OC(F)(F)F)cc3s1)n2C [Example 326, 1-Methyl-2-(6-trifluoromethoxy-benzothiazol-2-ylamino)-1H-benzoimidazole-5-carboxylic acid [2-((S)-2-hydroxy-propionylamino)-ethyl]-amide] | 34.3 |
| Cn1c(Nc2nc3ccc(Cl)cc3s2)nc2cc(C(=O)NCCO)ccc21 [Example 30, 2-(6-Chloro-benzothiazol-2-ylamino)-1-methyl-1H-benzoimidazole-5-carboxylic acid (2-hydroxy-ethyl)-amide] | 21.4 |
| Cn1c(Nc2nc3ccc(OC(F)(F)F)cc3s2)nc2cc(C(=O)NCCNC(=O)CO)ccc21 [Example 325, 1-Methyl-2-(6-trifluoromethoxy-benzothiazol-2-ylamino)-1H-benzoimidazole-5-carboxylic acid [2-(2-hydroxy-acetylamino)-ethyl]-amide] | 32.4 |
| COCCn1c(Nc2nc3ccc(OC(F)(F)F)cc3s2)nc2cc(C(=O)NCC(=O)N(C)C)ccc21 [Example 188, 1-(2-Methoxy-ethyl)-2-(6-trifluoromethoxy-benzothiazol-2-ylamino)-1H-benzoimidazole-5-carboxylic acid dimethylcarbamoylmethyl-amide] | 18.3 |
| Cn1c(Nc2nc3ccc(OC(F)(F)F)cc3s2)nc2cc(C(=O)NCCN3CCNC3=O)ccc21 [Example 330, 1-Methyl-2-(6-trifluoromethoxy-benzothiazol-2-ylamino)-1H-benzoimidazole-5-carboxylic acid [2-(2-oxo-imidazolidin-1-yl)-ethyl]-amide] | 37.7 |
| Cn1c(Nc2nc3ccc(OC(F)(F)F)cc3s2)nc2cc(C(=O)O)c(F)cc21 [Example 41, 6-Fluoro-1-methyl-2-(6-trifluoromethoxy-benzothiazol-2-ylamino)-1H-benzoimidazole-5-carboxylic acid] | 33.3 |
| COCCNC(=O)c1cc2nc(Nc3nc4ccc(OC(F)(F)F)cc4s3)n(C)c2cc1OC [Example 67, 6-Methoxy-1-methyl-2-(6-trifluoromethoxy-benzothiazol-2-ylamino)-1H-benzoimidazole-5-carboxylic acid (2-methoxy-ethyl)-amide] | 18.7 |
| CN(C)[C@H]1CCN(C(=O)CNC(=O)c2ccc3c(c2)nc(Nc2nc4ccc(OC(F)(F)F)cc4s2)n3C)C1 [Example 416, 1-Methyl-2-(6-trifluoromethoxy-benzothiazol-2-ylamino)-1H-benzoimidazole-5-carboxylic acid [2-((S)-3-dimethylamino-pyrrolidin-1-yl)-2-oxo-ethyl]-amide] | 96.6 |
| CCOCCNC(=O)c1ccc2c(c1)nc(Nc1nc3ccc(OC(F)(F)F)cc3s1)n2CC [Example 157, 1-Ethyl-2-(6-trifluoromethoxy-benzothiazol-2-ylamino)-1H-benzoimidazole-5-carboxylic acid (2-ethoxy-ethyl)-amide] | 22.1 |
| CNCCn1c(Nc2nc3ccc(Cl)cc3s2)nc2cc(C(=O)NCC(=O)N(C)C)ccc21 [Example 367, 2-(6-Chloro-benzothiazol-2-ylamino)-1-(2-methylamino-ethyl)-1H-benzoimidazole-5-carboxylic acid dimethylcarbamoylmethyl-amide hydrochloride] | 25.4 |
| Cn1c(Nc2nc3ccc(Cl)cc3s2)nc2cc(C(=O)NCCNCCF)ccc21 [Example 279, 2-(6-Chloro-benzothiazol-2-ylamino)-1-methyl-1H-benzoimidazole-5-carboxylic acid [2-(2-fluoro-ethylamino)-ethyl]-amide hydrochloride] | 89.2 |

Reference: patent US8759535B2, “Substituted fused imidazole derivatives, pharmaceutical compositions, and methods of use thereof” (High Point Pharmaceuticals, LLC, priority 2010, dated 2014)
